In US20190307749A1, “Mitochondria-Division Inhibitor 1 Protects Against Amyloid-B Induced Mitochondrial Fragmentation and Synaptic Damage in Alzheimer's Disease” (Texas Tech University System, priority 2018, published 2019):

System: mouse neuroblastoma (N2a) cells
Assay: Immunoblotting analysis of mitochondrial dynamics, biogenesis and synaptic proteins
Format: cell-based
Description: Tissue culture: The N2a cells were grown for 3 days in a serum-free medium (1:1 mixture of DMEM and OptiMEM, plus penicillin and streptomycin [Invitrogen, Carlsbad, Calif., USA]) until the cells developed neuronal processes.
[…] of protein was resolved from each group of cells on a 4-12% Nu-PAGE gel (Invitrogen). The resolved proteins were transferred to […] (Novax Inc., San Diego, Calif., USA) and were then incubated for 1 hour at room temperature with a blocking buffer (5% dry milk dissolved in a TBST buffer). The PVDF membranes were incubated overnight with primary antibodies (see Table 2) and washed 3 times with a TBST buffer at 10-minute intervals. They were then incubated for 2 hours with appropriate secondary antibodies, followed by 3 additional washes at 10-minute intervals. Mitochondrial and synaptic proteins were detected with cheminilumniscence reagents (Pierce Biotechnology, Rockford, Ill., USA), and the bands from immunoblots were quantified on a Kodak scanner, following manufacturer's instructions (ID Image Analysis Software, Kodak Digital Science, Kennesaw, Ga., USA), and the gel images were analyzed from gel images captured with a Kodak digital science CD camera. The lanes were marked to define the positions and specific regions of the bands. An ID fine-band command was used to locate and to scan the bands in each lane and to record the readings.

[1] = Aβ42 6 hrs then Mdivi1 24 hrs (Aβ42+Mdivi1), vs Aβ42 treated cells
[2] = Aβ42 6 hrs then Mdivi1 24 hrs (Aβ42+Mdivi1), vs untreated N2a cells
[3] = Mdivi1 24 hrs or Aβ42 20 μM 6 hrs alone, vs untreated N2a cells
[4] = Mdivi1 24 hrs then Aβ42 6 hrs (Mdivi1+Aβ42), vs Aβ42 treated cells
[5] = Mdivi1 24 hrs then Aβ42 6 hrs (Mdivi1+Aβ42), vs untreated N2a cells

`COc1cc(-n2c(S)nc3ccccc3c2=O)c(Cl)cc1Cl` [Mdivi1, 3-(2,4-Dichloro-5-methoxyphenyl)-2,3-dihydro-2-thioxo-4(1H)-quinazolinone] was tested, and the Drp1 protein level [1] was “significantly lower”, the Fis1 protein level [1] was “significantly lower” and the Mfn1 protein level [1] was “significantly higher”. For the same compound, the Mfn2 protein level [1] was “significantly higher”, the Nrf1 protein level [1] was “significantly higher” and the Opa1 protein level [1] was “significantly higher”. The PGC1α protein level [1] was “significantly higher”, the PSD95 protein level [1] was “significantly higher” and the Synaptophysin protein level [1] was “significantly higher”. For the same compound, the TFAM protein level [1] was “significantly higher”, the Drp1 protein level [2] was “Unchanged” and the Fis1 protein level [2] was “Unchanged”. For the same compound, the Drp1 protein level [3] was “significantly lower”, the Fis1 protein level [3] was “significantly lower” and the Mfn1 protein level [3] was “significantly higher”. The Mfn2 protein level [3] was “significantly higher”, the Nrf2 protein level [3] was “significantly higher” and the Opa1 protein level [3] was “significantly higher”. For the same compound, the PGC1α protein level [3] was “significantly higher”, the TFAM protein level [3] was “significantly higher” and the Drp1 protein level [4] was “significantly lower”. For the same compound, the Fis1 protein level [4] was “significantly lower”, the Mfn1 protein level [4] was “significantly higher” and the Mfn2 protein level [4] was “significantly higher”. The Nrf1 protein level [4] was “significantly higher”, the Nrf2 protein level [4] was “significantly higher” and the Opa1 protein level [4] was “significantly higher”. For the same compound, the PGC1α protein level [4] was “significantly higher”, the PSD95 protein level [4] was “significantly higher” and the Synaptophysin protein level [4] was “significantly higher”. For the same compound, the TFAM protein level [4] was “significantly higher”, the Drp1 protein level [5] was “unchanged” and the Fis1 protein level [5] was “unchanged”.
